From patent publication US20260325658A1 (priority 2022, published 2026)
“Also recorded” adds a separate entry of the source.

Columns and labels:
adult patients = settings: human, in vivo; cited from earlier work
[1] = cited from earlier work
[2] = target: human delta (DOP) receptor (Homo sapiens, UniProt P41143); format: cell-based
D2L human dopamine GPCR = D2L human dopamine GPCR (Homo sapiens, UniProt P14416); format: cell-based
Opiate μ = Opiate μ (Homo sapiens, UniProt P35372); format: binding
Chain of Opiate μ (P35372 whole entry): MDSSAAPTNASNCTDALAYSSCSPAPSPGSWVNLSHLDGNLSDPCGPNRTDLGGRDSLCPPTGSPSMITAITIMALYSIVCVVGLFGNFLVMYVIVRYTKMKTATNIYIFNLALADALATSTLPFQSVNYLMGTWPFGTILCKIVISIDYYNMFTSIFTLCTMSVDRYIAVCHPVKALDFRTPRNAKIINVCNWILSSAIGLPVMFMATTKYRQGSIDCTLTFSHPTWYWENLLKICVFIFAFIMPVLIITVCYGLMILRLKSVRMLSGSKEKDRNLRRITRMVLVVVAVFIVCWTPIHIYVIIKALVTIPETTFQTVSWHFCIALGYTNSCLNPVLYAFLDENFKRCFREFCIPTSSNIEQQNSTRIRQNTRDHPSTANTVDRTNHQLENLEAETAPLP

dopamine receptors = settings: cited from earlier work
patients = settings: human, in vivo; cited from earlier work
Mecp2-null mice = settings: mouse, in vivo; cited from earlier work
[3] = in vivo; cited from earlier work
Sigma 2 = Sigma 2 (Homo sapiens, UniProt Q5BJF2); settings: cited from earlier work
Chain of Sigma 2 (Q5BJF2 whole entry): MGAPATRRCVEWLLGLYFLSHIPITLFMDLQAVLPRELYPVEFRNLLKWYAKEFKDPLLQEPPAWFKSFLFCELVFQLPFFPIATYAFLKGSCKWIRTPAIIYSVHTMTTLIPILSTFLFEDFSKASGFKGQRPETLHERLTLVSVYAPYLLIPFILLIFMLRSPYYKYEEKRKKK

[4] = tested on: opioid addiction syndrome; settings: in vivo; cited from earlier work

Chain of D2L human dopamine GPCR (P14416 whole entry): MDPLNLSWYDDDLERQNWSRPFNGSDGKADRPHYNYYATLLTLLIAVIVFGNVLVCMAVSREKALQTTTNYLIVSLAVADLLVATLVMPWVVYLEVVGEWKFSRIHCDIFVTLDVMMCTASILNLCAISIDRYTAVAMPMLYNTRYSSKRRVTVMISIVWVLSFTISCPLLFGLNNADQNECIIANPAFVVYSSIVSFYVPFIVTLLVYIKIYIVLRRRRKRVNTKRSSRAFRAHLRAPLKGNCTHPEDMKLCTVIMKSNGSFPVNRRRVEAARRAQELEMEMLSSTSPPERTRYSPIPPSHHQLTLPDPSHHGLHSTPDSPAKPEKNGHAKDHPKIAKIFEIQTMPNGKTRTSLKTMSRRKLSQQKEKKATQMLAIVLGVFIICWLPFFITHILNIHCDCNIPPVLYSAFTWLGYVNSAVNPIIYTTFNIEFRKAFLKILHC
Chain of human delta (DOP) receptor (P41143 whole entry): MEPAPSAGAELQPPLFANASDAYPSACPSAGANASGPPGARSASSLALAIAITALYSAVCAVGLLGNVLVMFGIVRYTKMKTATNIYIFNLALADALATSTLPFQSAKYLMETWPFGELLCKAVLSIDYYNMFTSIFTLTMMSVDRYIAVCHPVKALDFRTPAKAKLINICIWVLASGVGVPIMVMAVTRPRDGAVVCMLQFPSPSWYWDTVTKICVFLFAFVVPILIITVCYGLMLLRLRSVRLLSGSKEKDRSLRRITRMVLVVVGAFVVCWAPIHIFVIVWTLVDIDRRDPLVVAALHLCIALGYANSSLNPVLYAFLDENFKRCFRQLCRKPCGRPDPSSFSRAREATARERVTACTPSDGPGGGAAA

For c1ccc(C2(N3CCCCC3)CCCCC2)cc1 [PCP, 1-(1-phencyclohexyl) piperidine], the “adult patients presenting with the classic toxidrome of PCP intoxication” value (adult patients) is listed as “Over 50%”.
In the case of NCCc1c[nH]c2ccccc12 [Tryptamine], the “Water Solubility of Free drug” value [1] is given as 1340 µg/mL.
In the case of NC1(c2ccccc2Cl)CCCCC1=O (racemic) [NorKetamine, (R,S)-Norketamine], the “Opiate delta1R (antagonist)” value [2] is listed as “Not active”, the “Water Solubility of Free drug” value [1] is listed as 178 µg/mL and the “DRD2L Agonist” value (D2L human dopamine GPCR) is listed as “Not active”. The “ability to bind dopamine 2 receptors” value (D2L human dopamine GPCR) was “does not appear to bind Dopamine 2 receptors”, the “Opiate μ” value (Opiate μ) was “Not active” and the “binding to Opioid u receptors” value (Opiate μ) was “does not bind Opioid u receptors”. The “affinity for / effect on dopamine receptors” value (dopamine receptors) was “do not appear to have a direct effect on dopamine receptors”.
In the case of CNC1(c2ccccc2Cl)CCCCC1=O (stereo not drawn) [Ketamine, 2-(2-chlorophenyl)-2-(methylamino)-cyclohexanone], the “patients who develop an emergence phenomenon” value (patients) is listed as “More than half the patients”, the “efficacy by start of treatment” value (Mecp2-null mice) is listed as “Treatment from day 30 was not effective; also recorded: treatment from day 15 showed some efficacy” and the improved survival (Mecp2-null mice) is listed as 50%. For the same compound, the survival after treatment (Mecp2-null mice) was 50%, the half-life [3] was “approximately 45 minutes” and the “concentration at which sigma2 receptors are bound” value (Sigma 2) was “mM concentrations”. The “affinity for / effect on dopamine receptors” value (dopamine receptors) was “not shown any affinity for dopamine 2 receptors; also recorded: do not appear to have a direct effect on dopamine receptors”.
For CC[C@H]1C[C@H]2C[C@H]3c4[nH]c5ccc(OC)cc5c4CCN(C2)[C@@H]13 [Ibogaine], the “drug craving and depressive symptoms” value [4] is given as “decreases drug craving and improves depressive symptoms”.
In the case of NCCc1c[nH]c2ccc(O)cc12 [5HT, 5-hydroxy tryptamine], the “Water Solubility of Free drug” value [1] is given as 2500 µg/mL.
